US20210106579A1, “AMELIORATION OF COGNITIVE AND MOTOR DEFICITS ASSOCIATED WITH ALZHEIMER'S” (Neuralstem, Inc., priority 2018, published 2021)

Legend:
5XFAD mice [1] = test: Barnes maze test (learning and memory retention) in Alzheimer's mouse model; format: in vivo; conditions: 30 mg/kg/day oral; for Memory retention (Barnes maze, retest after two days): 5XFAD mice
Method: (§1) A mouse model of Alzheimer's disease obtained from Jackson Laboratory was used in this study. […] Wild type control B6SJLF1/J mice were used. 5XFAD mice developed cognitive impairments at 4-5 months of age. Four groups of mice were employed, 15 mice per group, a wild type control administered vehicle; a wild type control administered NSI-189 as the phosphate salt administered orally at a level of 30 mg/kg per day and 5XFAD mice administered vehicle or administered NSI-189 as the phosphate salt orally also at 30 mg/kg/day (of the organic moiety). NSI-189 is of Formula 2 wherein R^1 is isoamyl. The treatment began at 15 weeks and was maintained for 12 weeks with measurements made after 6 weeks and 12 weeks.
The Barnes maze test is described in King, M. R., et al., J. Neurosc. Res. (supra). The Barnes maze consists of a brightly lit, circular, white platform with 20 holes with equidistant spacing around the periphery. An escape box is placed beneath one of the holes marked by a visual clue. Before testing begins, the mouse is placed in the center of the platform and allowed to explore until either it finds the escape box or five minutes has elapsed. The time to locate the escape box is then recorded at the end of the session, the mouse is left in, or placed in, the escape box for an additional minute.
This system is used to test both learning and memory. To test learning, the mouse was placed in the maze for five consecutive days to ascertain whether the time required to find the escape box was decreased, which would indicate learning. To test memory retention, a subsequent period of two days was allowed to elapse and the mouse was retested to ascertain whether a decreased time in finding the escape box was found.

5XFAD mice [2] = test: Object recognition test (short term memory) in Alzheimer's mouse model; format: in vivo; conditions: 30 mg/kg/day oral, 6 weeks of treatment, FIG. 5
Method: as §1
The object recognition test is also described in King, M. R., et al. (supra). This is based on a concept that the mice will explore a novel object for a longer time than a familiar object. Two identical objects are placed equal distance from each other and from the side of a transparent box and mice are given 10 minutes to achieve 30 seconds of exploration of the two objects after which they are placed back in their home cage. […] The time that the mouse spends exploring the familiar and novel object is recorded and mice with normal cognitive function typically spend more time with a novel object.

5XFAD mice [3] = test: Learning Rota-Rod test (motor skills and learning) in Alzheimer's mouse model; format: in vivo; conditions: 30 mg/kg/day oral
Method: as §1
The Rota-Rod test also is described in King, et al. (supra). Rota-Rod is marketed by Stoelting Company, Wood Dale, Ill. This is a rod that rotates accelerating from 4-40 rpm over five minutes and the amount of time spent on the rod before loss of balance is recorded over three trials. This measures both motor skills, and if conducted over a period of days, it measures learning.

5XFAD mice [4] = test: Anxiety: time spent on the edge of an inverted beaker; format: in vivo, mouse; conditions: FIG. 8
Method: as §1
The time spent on the edge of an inverted beaker is used to assess anxiety, and the lower the time the more the anxious the mouse.

With `CC(C)CCNc1ncccc1C(=O)N1CCN(Cc2ccccc2)CC1` [NSI-189] the “Learning (Barnes maze)” value (5XFAD mice [1]; 5XFAD mice (7 month old), 12 weeks of treatment, FIG. 3) was “amelioration of worsened learning deficit”, the “Memory retention (Barnes maze, retest after two days)” value (5XFAD mice [1]; 6 weeks of treatment, FIG. 2) was “improved memory” and the “Memory retention (Barnes maze, retest after two days)” value (5XFAD mice [1]; 12 weeks of treatment, FIG. 4) was “improvement of memory retention”. The “Learning (Barnes maze, time to find escape box over five consecutive days)” value (5XFAD mice [1]; control and 5XFAD mice, 6 weeks of treatment, FIG. 1) was “appeared not to affect the learning curve of either group”, the “Recognition index (object recognition test)” value (5XFAD mice [2]) was “improved the recognition index of 5XFAD mice” and the “Motor skill at the beginning and learning (time on Rota-Rod)” value (5XFAD mice [3]; 5XFAD mice, 6 weeks of treatment, FIG. 7) was “improves both the motor skill exhibited at the beginning and learning even over control”. The “Behavior of control mice” value (5XFAD mice [3]; wild type control mice, statement covers the behavioural tests) was “In no case did NSI-189 affect the behavior of control mice”, the “Anxiety (time spent on the edge of an inverted beaker)” value (5XFAD mice [4]; control and 5XFAD mice at 7 months (12 weeks of treatment)) was “partially reduced the anxiety in both” and the “Anxiety (time spent on the edge of an inverted beaker)” value (5XFAD mice [4]; control and 5XFAD mice at five months (6 weeks of treatment)) was “did not affect either group”.
